In US20260008754A1, “N-SUBSTITUTED DERIVATIVES OF L-(L-PHENYL-3-ARYL)-LFF-PYRAZOL-4-YL)METHANAININE, METHOD FOR THEIR PRODUCTION AND THEIR APPLICATIONS” (priority 2022, published 2026):
pEC50: −log10 of the molar value.

Assays:
μ opioid receptor [1] = target: T1, μ opioid receptor (Homo sapiens, UniProt P35372); assay: μ opioid receptor agonism, β arrestin pathway; assay type: cell-based
μ opioid receptor [2] = target: T1, μ opioid receptor; assay: μ opioid receptor agonism, G protein signaling pathway; assay type: cell-based; settings: for Biased Agonism Selectivity Coefficient k: G protein pathway relative to β arrestin (ratio of the two EC50)
[3] = μ opioid receptor, β arrestin pathway, read-out: EC50 (β arrestin)
[4] = μ opioid receptor, G protein pathway, read-out: EC50 (G protein)

T1 sequence (P35372 whole entry, species assumed): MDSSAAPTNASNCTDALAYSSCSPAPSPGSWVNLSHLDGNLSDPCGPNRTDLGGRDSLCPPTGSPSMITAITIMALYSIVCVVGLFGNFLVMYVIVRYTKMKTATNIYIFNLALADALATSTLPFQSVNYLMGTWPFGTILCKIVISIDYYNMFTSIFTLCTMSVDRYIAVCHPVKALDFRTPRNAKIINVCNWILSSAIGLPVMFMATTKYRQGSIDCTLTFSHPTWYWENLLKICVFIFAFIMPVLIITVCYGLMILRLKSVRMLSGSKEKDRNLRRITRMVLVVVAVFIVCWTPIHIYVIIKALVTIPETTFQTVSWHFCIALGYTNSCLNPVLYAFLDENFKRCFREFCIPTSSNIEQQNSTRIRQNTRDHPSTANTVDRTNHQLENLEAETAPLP

With `CCCNC(=O)c1cccc(CNCc2cn(-c3ccccc3)nc2-c2ccncc2)c1` [Compound 1] as the compound, how does the pEC50 (μ opioid receptor [1]) read?
Its pEC50 is 4.73.

What about the pEC50 (μ opioid receptor [2]) of the same compound?
The pEC50 was 6.15.

And the “Biased Agonism Selectivity Coefficient k” value (μ opioid receptor [2])?
The value was 26.7.

With `CCCNC(=O)c1cccc(CNCc2cn(-c3ccccc3)nc2-c2ccccc2)c1` [Compound 2] as the compound, how does the pEC50 (μ opioid receptor [1]) read?
Its pEC50 is 5.30.

And the pEC50 (μ opioid receptor [2])?
The pEC50 was 6.84.

What about the “Biased Agonism Selectivity Coefficient k” value (μ opioid receptor [2]) of the same compound?
Its value is 34.8.

With `c1ccc(-n2cc(CNCc3ccc4occc4c3)c(-c3ccncc3)n2)cc1` [Compound 3] as the compound, how does the pEC50 (μ opioid receptor [1]; [3]) read?
The pEC50 was 6.71.

What about the “Biased Agonism Selectivity Coefficient k” value (μ opioid receptor [2]) of the same compound?
Its value is 157.9.

And the pEC50 (μ opioid receptor [2]; [4])?
Its pEC50 is 8.91.

What does the source list for `c1ccc(-c2nn(-c3ccccc3)cc2CNCc2ccc3occc3c2)cc1` [Compound 4]?
pEC50 (μ opioid receptor [1]): 5.34; pEC50 (μ opioid receptor [2]): 6.86; Biased Agonism Selectivity Coefficient k (μ opioid receptor [2]): 32.8

How did the pEC50 (μ opioid receptor [2]) turn out when `Cc1cc(C)n2c(CNCc3cn(-c4ccccc4)nc3-c3ccccc3)cnc2n1` [Compound 6] was run?
Its pEC50 is 5.66.

Which results are given for `CCCOC(=O)c1cccc(CNCc2cn(-c3ccccc3)nc2-c2ccccc2)c1` [Compound 8]?
pEC50 (μ opioid receptor [1]): 6.24; pEC50 (μ opioid receptor [2]): 5.19; Biased Agonism Selectivity Coefficient k (μ opioid receptor [2]): 11.3

With `CCCOC(=O)c1cccc(CNCc2cn(-c3ccccc3)nc2-c2ccncc2)c1` [Compound 9] as the compound, how does the pEC50 (μ opioid receptor [1]) read?
The pEC50 was 5.79.

And the pEC50 (μ opioid receptor [2])?
The pEC50 was 4.65.

What about the “Biased Agonism Selectivity Coefficient k” value (μ opioid receptor [2]) of the same compound?
Its value is 13.6.

What does the source list for `CCOC(=O)c1cccc(CNCc2cn(-c3ccccc3)nc2-c2ccccc2)c1` [Compound 10]?
pEC50 (μ opioid receptor [1]): 5.74; pEC50 (μ opioid receptor [2]): 4.86; Biased Agonism Selectivity Coefficient k (μ opioid receptor [2]): 7.6

With `CCOC(=O)c1cccc(CNCc2cn(-c3ccccc3)nc2-c2ccncc2)c1` [Compound 11] as the compound, how does the pEC50 (μ opioid receptor [1]) read?
The pEC50 was 4.17.

And the pEC50 (μ opioid receptor [2])?
The pEC50 was 5.14.

And the “Biased Agonism Selectivity Coefficient k” value (μ opioid receptor [2])?
Its value is 9.3.

Which results are given for `c1ccc(-n2cc(CNCc3ccc4c(c3)OCO4)c(-c3ccncc3)n2)cc1` [Compound 12]?
pEC50 (μ opioid receptor [1]; [3]): 4.63; Biased Agonism Selectivity Coefficient k (μ opioid receptor [2]): 2228.6; pEC50 (μ opioid receptor [2]; [4]): 7.98

`c1ccc(-n2cc(CNCc3ccc4c(c3)CCO4)c(-c3ccncc3)n2)cc1` [Compound 13] was tested. Which pEC50 (μ opioid receptor [1]; [3]) did it give?
Its pEC50 is 5.23.

What about the “Biased Agonism Selectivity Coefficient k” value (μ opioid receptor [2]) of the same compound?
The value was 940.9.

What about the pEC50 (μ opioid receptor [2]; [4]) of the same compound?
Its pEC50 is 8.20.

How did the pEC50 (μ opioid receptor [2]) turn out when `CC(C)Oc1ccc(CNCc2cn(-c3ccccc3)nc2-c2ccncc2)cc1` [Compound 14] was run?
The pEC50 was 6.28.

`c1ccc(-n2cc(CNCCn3cccn3)c(-c3ccncc3)n2)cc1` [Compound 15] was tested. Which pEC50 (μ opioid receptor [2]) did it give?
Its pEC50 is 5.51.
